Test results: paper PMC4058456, “Jacobsen Catalyst as a Cytochrome P450 Biomimetic Model for the Metabolism of Monensin A” (BioMed Research International, 2014)
Values after ≈ are worked out from the molar mass of the structure shown. Like-named read-outs stand apart in the source and are kept apart here. Marks after values point to notes of the source that are not given here.

Experiments:
[1] = test system: Escherichia coli ATCC 25922; assay: Antimicrobial bioassay, minimal bactericidal concentration (MTT); assay type: cell-based
Protocol: (§1) The bioassays were carried out using the strains Staphylococcus aureus ATCC 25923, Staphylococcus aureus ATCC 43300 (MRSA-methicillin resistant), Staphylococcus epidermidis ATCC 14990, Pseudomonas aeruginosa ATCC 27853, and Escherichia coli ATCC 25922 all acquired from the American Type Culture Collection (ATCC). Approximately 5 × 10^5 microorganisms·mL^−1 were incubated in Muller Hinton broth in 96-well microtiter plates containing the samples to be tested. The compounds (monensin A, metabolite 1, and metabolite 2) were dissolved in dimethylsulfoxide (DMSO) and diluted into the medium to give 100, 50, 25, 12.5, 6.3, 3.1, 1.6, 0.8, 0.4, 0.2, 0.1, and 0.05 μg·mL^−1, as their final concentrations. The plates were incubated at 37°C and the bioassays were performed in triplicate. The cell death was determined by a MTT colorimetric method which was described by Andrews and Furtado et al.. The DMSO solution and chloramphenicol were used as controls of the experiment.

[2] = test system: Staphylococcus aureus ATCC 25923; assay: as above; assay type: cell-based; settings: for MBC: Staphylococcus aureus
Protocol: as §1

[3] = test system: Staphylococcus aureus ATCC 43300 (MRSA-methicillin resistant); assay: as above; assay type: cell-based; settings: for MBC: Staphylococcus aureus, read-out: Minimal bactericidal concentration
Protocol: as §1

[4] = test system: Pseudomonas aeruginosa ATCC 27853; assay: as above; assay type: cell-based
Protocol: as §1

[5] = test system: Staphylococcus epidermidis ATCC 14990; assay: as above; assay type: cell-based
Protocol: as §1

[6] = test system: S. epidermidis ATCC 35984; parameters: method as in PMID 23509771; settings: cited from earlier work
rat liver mitochondria [7] = assay: Mitochondrial respiration (oxygen consumption, Clark-type electrode); settings: 1 μM
Protocol: (§2) Monensin A was diluted in ethanol to concentrations 0.01, 0.1, and 1 μM. All assays were performed in three replicates. Rat liver mitochondria were isolated by standard differential centrifugation according to Pereira et al. and the mitochondrial protein content was determined by the biuret method.
Mitochondrial respiration was monitored polarographically with an oxygraph (Hansatech) equipped with a Clark-type oxygen electrode. The mitochondria (1.0 mg protein) were incubated at 30°C in 1 mL of the respiratory medium containing 125 mM sucrose, 65 mM KCl, 10 mM HEPES-KOH, 0.5 mM EGTA, and 10 mM K2HPO4; pH 7.2. 5 mM glutamate and malate were used as the oxidizable substrates for complex I; and mitochondrial oxidative phosphorylation (state 3) was initiated using 400 nmol ADP.

rat liver mitochondria [8] = assay: Mitochondrial swelling (apparent absorbance at 540 nm); settings: 1 μM
Protocol: as §2
Mitochondrial swelling was estimated from the decrease in apparent absorbance at 540 nm performed with a Model DU-70 spectrophotometer (Beckman). The mitochondria were incubated using 30°C in 2 mL of the standard reaction medium.

S. aureus ATCC 25923 = test system: S. aureus ATCC 25923; parameters: method as in PMID 23509771; settings: cited from earlier work
[9] = Biomimetic oxidation of monensin A catalysed by Jacobsen catalyst (CYP450 model), HPLC-ESI-MS; assay type: in vitro ADME; settings: catalyst:oxidant:monensin A 1:20:20, CH2Cl2, room temperature, 24 h
Protocol: Based on the previous studies by this laboratory, the oxidation reactions were performed in an Eppendorf tube (2 mL), under mechanical stirring (Vibrax VXR agitator) at room temperature for 24 h. The ideal molar ratio obtained for the reaction was 1 : 20 : 20 (for catalyst : oxidant : monensin A). This was achieved by adding 0.3 mmol·L^-1 : 6 mmol·L^-1 : 6 mmol·L^−1 in the 0.5 mL of reaction medium (CH2Cl2). The oxidants were m-CPBA, PhIO, t-BOOH, and H2O2. The products from monensin A oxidation were analyzed by HPLC-ESI-MS. Control reactions were carried out in the absence of catalyst under the same conditions as the catalytic runs and no products were detected.
LC-ESI-MS analyses were performed on a Varian LC-MS 1200L triple quadrupole apparatus coupled to a mass spectrometer with ESI ionization in the positive mode (Varian Medical Systems Inc., Palo Alto, CA). The chromatographic analysis was performed using an injection volume of 10 μL, sample concentration 50 μg·mL^−1 in an Xterra analytical column MS C-18 (150 × 2.1 mm, 5 μm) (Waters) and following gradient (MeOH : H2O): 0.1 min 70% MeOH, 20.0 min 98% MeOH, 21.0 min 30% MeOH, and 30.0 min 70% MeOH. The MS conditions were capillary voltage 3.2 kV, cone voltage 40 V, source temperature 40°C, and N2 desolvation temperature 350°C. The percentage of monensin A oxidation was determined by using a calibration curve of 10–100 μg·mL^−1. The resulting mass spectra were monitored over a m/z range of 610 to 800.

rat liver mitochondria [10] = assay: Mitochondrial ROS production (H2DCFDA); settings: 1 μM
Protocol: as §2
Mitochondrial reactive oxygen species (ROS) production was monitored spectrofluorimetrically with 2′,7′-dichlorodihydrofluorescein diacetate (H2DCFDA) with the 503/529 nm excitation/emission wavelength pair, both using the standard reaction medium.

[11] = test system: S. epidermidis ATCC 12228; parameters: method as in PMID 23509771; settings: cited from earlier work
rat liver mitochondria [12] = assay: Mitochondrial membrane potential (safranin-o fluorescence); settings: 1 μM
Protocol: as §2
Mitochondrial Membrane potential (ΔΨ) was monitored spectrofluorimetrically using 10 μM safranin-o as a probe in a F-4500 spectrofluorometer (Hitachi) with the 495/586 nm excitation/emission wavelength pair. The mitochondria (1.0 mg protein·mL^−1) were incubated at 30°C in 2 mL of the standard reaction medium containing 125 mM sucrose, 65 mM KCl, and 10 mM HEPES-KOH, and CCCP (carbonyl cyanide 3-chlorophenylhydrazone) was added at the end of each experiment for the complete dissipation of the membrane potential.

Bacillus subtilis = test system: Bacillus subtilis; parameters: method as in PMID 17702333; settings: bioautography against Bacillus subtilis; cited from earlier work
Streptococcus faecalis = test system: Streptococcus faecalis; parameters: method as in PMID 17702333; settings: turbidimetric assay against Streptococcus faecalis; cited from earlier work
[13] = ATCC25922, E. coli ATCC 25922, read-out: Minimal bactericidal concentration
[14] = ATCC25923, S. aureus ATCC 25923, read-out: Minimal bactericidal concentration
[15] = ATCC27853, P. aeruginosa ATCC 27853, read-out: Minimal bactericidal concentration
[16] = ATCC14990, S. epidermidis ATCC 14990, read-out: Minimal bactericidal concentration
[17] = isolated rat liver mitochondria 1.0 mg protein·mL−1

| SMILES | MBC [1, 13] [µg/mL] | MBC [2, 14] [µg/mL] | MBC ([3]; S. aureus ATCC 43300 (MRSA)) [µg/mL] | MBC [4, 15] [µg/mL] | MBC [5, 16] [µg/mL] | effect on mitochondrial respiratory parameters (in words) (rat liver mitochondria [7]) | ADP/O (phosphorylation efficiency) (rat liver mitochondria [7]; [17]) | RCR (respiratory control ratio) (rat liver mitochondria [7]; [17]) | V3 (state 3 respiration rate) (rat liver mitochondria [7]; [17]) | V4 (state 4 respiration rate) (rat liver mitochondria [7]; [17]) | effect on mitochondrial swelling (in words) (rat liver mitochondria [8]) | effect on mitochondrial ROS accumulation (in words) (rat liver mitochondria [10]) | Minimal bactericidal concentration ([2]; S. aureus ATCC 25923) [µg/mL] | Minimal bactericidal concentration ([3]; S. aureus ATCC 43300 (MRSA)) [µg/mL] | effect on mitochondrial membrane potential (in words) (rat liver mitochondria [12]) | other results |
| --- | --- | --- | --- | --- | --- | --- | --- | --- | --- | --- | --- | --- | --- | --- | --- | --- |
| O=C(N[C@H](CO)[C@H](O)c1ccc([N+](=O)[O-])cc1)C(Cl)Cl [Chloramphenicol, chloramphenicol, reference compound] | 3.1 (≈ 9.59 µM) | 6.3 (≈ 19.5 µM) | 8.3 (≈ 25.7 µM) | 100 (≈ 309 µM) | 6.3 (≈ 19.5 µM) |  |  |  |  |  |  |  |  |  |  |  |
| CC[C@@]1([C@@H]2O[C@@H]([C@H]3O[C@@](O)(CO)[C@H](C)C[C@@H]3C)C[C@@H]2C)CC[C@H]([C@]2(C)CC[C@]3(C[C@H](O)[C@@H](C)[C@@H]([C@@H](C)[C@@H](OC)[C@H](C)C(=O)O)O3)O2)O1 [Monensin A] | > 100 | 3.1 (≈ 4.62 µM) | 6.3 (≈ 9.39 µM) | > 100 | 25 (≈ 37.3 µM) |  |  |  |  |  |  |  |  |  |  | antimicrobial activity concentration [6]: 5.8 µg/mL; ADP/O (phosphorylation efficiency) (rat liver mitochondria [7]; rat, pH 7.2): 1.498 ± 0.01^b; RCR (respiratory control ratio) (rat liver mitochondria [7]; rat, pH 7.2): 4.548 ± 0.16^b; V3 (state 3 respiration rate) (rat liver mitochondria [7]; rat, pH 7.2): 64.097 ± 2.35^a nmol O2/mg protein/min; V4 (state 4 respiration rate) (rat liver mitochondria [7]; rat, pH 7.2): 14.12 ± 0.97^b nmol O2/mg protein/min; decrease of respiratory control ratio (RCR) (rat liver mitochondria [7]; rat, pH 7.2): 32.59%; increase of state 4 of oxygen consumption (rat liver mitochondria [7]; rat, pH 7.2): 44.11%; reduction in ADP/O (rat liver mitochondria [7]; rat, pH 7.2): 47.73%; mitochondrial swelling, effect on the apparent turbidity (rat liver mitochondria [8]; rat): 54.61%; antimicrobial activity concentration (S. aureus ATCC 25923): 2.9 µg/mL; monensin conversion ([9]; oxidant H2O2): 26%; monensin conversion ([9]; oxidant PhIO): 36%; monensin conversion ([9]; oxidant m-CPBA): 27%; monensin conversion ([9]; oxidant t-BOOH): 14%; increase in accumulation of free radicals (ROS) (rat liver mitochondria [10]; rat): 12.14%; antimicrobial activity concentration [11]: 2.9 µg/mL; decrease on the mitochondrial membrane potential (rat liver mitochondria [12]; rat): 23.29% |
| CCC1(C2OC(C3OC(O)(CO)C(C)CC3C)CC2C)CCC(C2(C)CCC3(CC(O)C(C)C(C(C)C(O)C(C)C(=O)O)O3)O2)O1 (centres unmarked) [Product 1, 3-O-demethyl monensin A] |  |  |  |  |  | none of these detrimental effects | 2.757 ± 0.09^a | 6.623 ± 0.27^a | 66.363 ± 2.29^a nmol O2/mg protein/min | 10.02 ± 0.11^a nmol O2/mg protein/min | no effect | no effect | 25.0 (≈ 38.1 µM) | 50.0 (≈ 76.1 µM) | no effect | antimicrobial activity relative to monensin (Bacillus subtilis): 5%; antimicrobial activity relative to monensin (Streptococcus faecalis): 5%; MBC ([1]; ATCC25922, read-out: Minimal bactericidal concentration): > 100 µg/mL; MBC ([2]; ATCC25923, read-out: Minimal bactericidal concentration): 25 µg/mL (≈ 38.1 µM); MBC [3]: 50 µg/mL (≈ 76.1 µM); MBC ([4]; ATCC27853, read-out: Minimal bactericidal concentration): > 100 µg/mL; MBC ([5]; ATCC14990, read-out: Minimal bactericidal concentration): > 100 µg/mL |
| CCC1(C2OC(C3OC(O)(CO)C(C)C(O)C3C)CC2C)CCC(C2(C)CCC3(CC(O)C(C)C(C(C)C(OC)C(C)C(=O)O)O3)O2)O1 (centres unmarked) [Product 2, 12-hydroxy monensin A] | > 100 | > 100 | > 100 | > 100 | > 100 | none of these detrimental effects | 2.728 ± 0.06^a | 6.786 ± 0.15^a | 66.730 ± 1.95^a nmol O2/mg protein/min | 9.832 ± 0.07^a nmol O2/mg protein/min | no effect | no effect | > 100 | > 100 | no effect |  |
